Results reported in BindingDB's records for doi:10.1021/bi401043w (Mayo Clinic, 2013).

Columns and labels:
Acetylcholinesterase [1] = biological target: T1, Acetylcholinesterase (Mus musculus, UniProt P21836); test: Assay of Substrate Hydrolysis; conditions: pH 7; 25 °C
T1 sequence (P21836 whole entry): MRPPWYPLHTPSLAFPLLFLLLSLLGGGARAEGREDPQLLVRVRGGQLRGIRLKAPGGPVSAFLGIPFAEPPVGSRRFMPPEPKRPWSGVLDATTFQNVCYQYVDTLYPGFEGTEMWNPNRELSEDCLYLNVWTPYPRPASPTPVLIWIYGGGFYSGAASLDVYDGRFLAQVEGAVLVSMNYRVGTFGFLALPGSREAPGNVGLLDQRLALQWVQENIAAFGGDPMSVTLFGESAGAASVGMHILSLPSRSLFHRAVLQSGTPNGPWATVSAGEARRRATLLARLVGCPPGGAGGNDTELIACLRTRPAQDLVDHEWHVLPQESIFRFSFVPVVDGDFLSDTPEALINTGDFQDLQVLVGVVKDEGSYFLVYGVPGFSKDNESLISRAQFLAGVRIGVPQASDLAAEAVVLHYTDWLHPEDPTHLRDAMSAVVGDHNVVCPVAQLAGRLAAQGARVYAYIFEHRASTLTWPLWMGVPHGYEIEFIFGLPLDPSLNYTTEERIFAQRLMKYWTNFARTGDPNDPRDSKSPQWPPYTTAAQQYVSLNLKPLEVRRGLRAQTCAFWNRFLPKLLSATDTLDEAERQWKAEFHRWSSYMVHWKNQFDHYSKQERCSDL
Protocol: (§1) Assays were conducted at 25 C in 20 mM sodium phosphate buffer (pH 7.0) and 0.01% bovine serum albumin unless otherwise noted. AChE concentrations were varied to optimize measured rates.

Acetylcholinesterase [2] = biological target: Acetylcholinesterase (Homo sapiens, UniProt P22303); test: Assay of Substrate Hydrolysis; conditions: pH 7; 25 °C
Protocol: as §1

Chain of Acetylcholinesterase (Homo sapiens, UniProt P22303) (P22303 whole entry): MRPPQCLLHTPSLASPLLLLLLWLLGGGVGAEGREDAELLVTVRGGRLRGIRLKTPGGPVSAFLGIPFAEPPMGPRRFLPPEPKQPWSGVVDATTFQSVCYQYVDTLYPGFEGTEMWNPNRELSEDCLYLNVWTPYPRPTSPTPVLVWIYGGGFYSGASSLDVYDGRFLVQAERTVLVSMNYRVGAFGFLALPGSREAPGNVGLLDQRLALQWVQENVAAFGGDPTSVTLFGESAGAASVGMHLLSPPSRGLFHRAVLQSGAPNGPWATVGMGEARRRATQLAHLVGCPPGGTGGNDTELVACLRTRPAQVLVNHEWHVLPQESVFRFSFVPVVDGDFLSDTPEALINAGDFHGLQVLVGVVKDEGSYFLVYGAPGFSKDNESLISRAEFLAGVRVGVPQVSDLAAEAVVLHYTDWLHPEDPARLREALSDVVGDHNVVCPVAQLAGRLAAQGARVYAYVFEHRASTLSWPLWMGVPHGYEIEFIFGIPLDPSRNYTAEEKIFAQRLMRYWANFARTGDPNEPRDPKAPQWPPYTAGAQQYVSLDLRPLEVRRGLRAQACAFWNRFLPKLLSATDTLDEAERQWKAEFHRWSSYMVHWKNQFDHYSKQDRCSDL

SMILES	Ki (Acetylcholinesterase [1]) [nM]	Ki (Acetylcholinesterase [2]) [nM]
C[n+]1c2ccccc2cc2ccccc21 [N-methylacridinium]	310	
Cc1ccc2c(c1)sc(-c1ccc(N(C)C)cc1)[n+]2C [Thioflavin T, 1]		1000
O=c1ccc2ccccc2o1 [2H-chromen-2-one]	9300	
COc1cc2c(c3oc(=O)c4c(c13)CCC4=O)[C@@H]1C=CO[C@@H]1O2 [Aflatoxin B1]		28000
COc1cc(-c2cc3c(c(=O)o2)C[C@]2(O)[C@@]4(C)C(=O)C=CC(C)(C)[C@]4(O)CC[C@@]2(C)O3)cc(OC)c1OC		1.7
C/C=C1\C2C=C(C)CC1(N)c1ccc(=O)[nH]c1C2 (stereo not drawn) [(+)-Huperzine A]		4.6
CCC1=C[C@@H]2Cc3nc4cc(Cl)ccc4c(N)c3[C@H](C1)C2 (racemic) [(1S)-7-chloro-15-ethyl-10-azatetracyclo[11.3.1.0^{2,11}.0^{4,9}]heptadeca-2(11),3,5,7,9,14-hexaen-3-amine]		0.026
Cc1cccc2c3c(ccc12)C1=C(C(=O)C3=O)[C@@H](C)CO1 [Dihydrotanshinone I]		750
CC[N+](C)(C)c1cccc(O)c1 [Edrophonium Chloride, 3]	250	
